# Measurements as given in patent US20040235922A1, “Compositions and methods for inducing adipose tissue cell death” (priority 2003, published 2004).
# Entries after “also recorded” stand apart in the source; their conditions may differ.
# System: Epi/Par fat pads (white adipose tissue)
# Experiment: Adipose tissue apoptosis assay, % DNA fragmentation (Example 1)
# Type: in vivo, mice
# Conditions: 21 days
# Experimental: Animals: Five week old male (n=20) and female (n=20) ICR mice (Harlan Research Laboratories, Indianapolis, Ind.) were allowed to acclimate for one week prior to the experiment start date. Animals were housed singly in suspended wire cages and were provided ground rodent chow (ProLab® RMH 2500; Purina Mills, St. Louis, Mo.) and water ad libitum. Ambient room temperature was maintained and the light/dark cycle was 0600/1800 hours, respectively. Animals were cared for in accordance with the Guide for the Care and Use of Laboratory Animals (Institute of Laboratory Animal Resources Commission on Life Sciences National Research Council. Guide for the Care and Use of Laboratory Animals. National Academy of Sciences, 1996). Prior to the start of the study, animals were briefly anesthetized with isofluorane and an IPPT-200 transponder (programmable ID and temperature, BMDS, Seaford, Del.) was implanted subcutaneously between the scapulae.
# Materials: Test articles included clenbuterol (Sigma Chemical Company, St. Louis, Mo., item # C5423) and ractopamine hydrochloride—Paylean® 9 (Elanco Animal Health, Indianapolis, Ind.). Clenbuterol is available as a pure product, and ractopamine is readily available as a type A medicated article. Paylean® 9 contains about 20 g ractopamine hydrochloride per kilogram in a ground corncob base. In order to achieve doses of 200 and 800 ppm it was necessary to add about […] of product per kilogram of diet. Control and clenbuterol diets were prepared with about 80 g of alphacel, which is a diluent used to mimic the effect of the corncob in the ractopamine product. The dose of clenbuterol used in this experiment was similar to those used in previous experiments with mice (Agbenyega E T, and Wareham A C. Effect of clenbuterol on skeletal muscle atrophy in mice induced by the glucocorticoid dexamethasone. Comp Biochem Physiol Comp Physiol 1992;102:141-145, Rothwell N. J., and Stock M J. Modification of body composition by clenbuterol in normal and dystrophic (mdx) mice. Biosci Rep 1985;5:755-760, Hyltander A, Svaninger G, and Lundholm K. The effect of clenbuterol on body composition in spontaneously eating tumour-bearing mice. Biosci Rep 1993;13:325-331, Hayes A, and Williams DA. Long-term clenbuterol administration alters the isometric contractile properties of skeletal muscle from normal and dystrophin-deficient mdx mice. Clin Exp Pharmacol Physiol 1994;21:757-765, Dupont-Versteegden EE. Exercise and clenbuterol as strategies to decrease the progression of muscular dystrophy in mdx mice. J Appl Physiol 1996;80:734-741).
# DNA Isolation and Apoptosis Assay: Only the Epi and Par fat pads had sufficient tissue for the apoptosis assay. Apoptosis was assayed in two ways: DNA isolated from fat tissue was separated into two fractions: fragmented and genomic DNA. First, the fragmented DNA was run on an agarose gel in order to identify a ladder pattern of internucleosomal DNA degradation that is characteristic of apoptosis. Second, apoptosis was quantified as the ratio of fragmented- to total-DNA, multiplied by 100. Briefly, approximately 50 mg of the Epi or Par white adipose tissue was homogenized in lysis buffer (10 mM Tris-HCL, pH 8.0, 10 mM EDTA, pH 8.0; 0.5% Triton X-100) and centrifuged at 14,000× g for 15 min to separate fragmented DNA from genomic DNA. The supernatant, containing fragmented DNA, was extracted with phenol-chloroform-isoamyl alcohol (25:24:1), and the DNA was precipitated by adding polyacryl carrier (Molecular Research Center, Inc., Cincinnati, Ohio) and ethanol. Genomic (non-fragmented) DNA was extracted from the pellet with DNAzol and the polyacryl carrier. DNA in each fraction was quantified by the PicoGreen method (Molecular Probes, Inc., Eugene, Oreg.) and fluorescence was measured using a SpectroMax Gemini (Molecular Devices).
# Statistical Analysis: Analysis of variance (SAS) was used to determine significance of treatment and gender effects. […]
smiles,measurement,setting,value
"CC(C)(C)NCC(O)c1cc(Cl)c(N)c(Cl)c1 (stereo not drawn) [Clenbuterol, clenbuterol]",Percent DNA fragmentation (apoptosis) in the Epi/Par fat pad compared to control,"200 ppm clenbuterol, 800 ppm ractopamine in diet, p<0.05, listed as clenbuterol",increased; also recorded: significant increase in apoptosis
same,Adipose tissue apoptosis (% DNA fragmentation) in Epi/Par fat pads,"200 ppm in diet, mice, control 1.7±0.4%",5.2 ± 1.1%
same,DNA fragmentation in retroperitoneal or inguinal fat pads,"diet, mice",Neither clenbuterol nor ractopamine treatments increased
